Literature values in US20080268045A1, “SUSTAINED RELEASE METHOTREXATE FORMULATIONS AND METHODS OF USE THEREOF” (Proprius Pharmaceuticals, Inc., priority 2006, published 2008).

## CN(Cc1cnc2nc(N)nc(N)c2n1)c1ccc(C(=O)N[C@@H](CCC(=O)O)C(=O)O)cc1 [methotrexate]
Higher dose strength (10-15 mg/dose)
  Bioavailability of orally dosed methotrexate: 30-40%
Lower dose strength
  Bioavailability of orally administered methotrexate: ≤ 60%
